{
  "source": "patent US20210401768A1",
  "about": "“FORMULATIONS OF CANNABINOIDS FOR THE TREATMENT OF DERMATITIS AND INFLAMMATORY SKIN DISEASES” (Botanix Pharmaceuticals Ltd., priority 2017, published 2021)",
  "key": {"[1]": {"assay": "Discoloration of CBD solutions and formulations on standing", "format": "physicochemical", "details": "end of day", "source_text": "The CBD2 material dissolved like the CBD1 therefore the CBD2 is CBD without the discoloration properties of CBD1."}, "anandamide": {"system": "anandamide", "details": "rat basophilic leukemia cells; cited from earlier work"}, "[2]": {"biological_target": "T1, human vanilloid receptor type 1 (VR1) (Homo sapiens, UniProt Q8NER1)", "T1 construct": "expressed in transfected cells; host or cells: HEK cells transfected with hVR1 (HEK-hVR1)", "T1 sequence (Q8NER1 whole entry)": "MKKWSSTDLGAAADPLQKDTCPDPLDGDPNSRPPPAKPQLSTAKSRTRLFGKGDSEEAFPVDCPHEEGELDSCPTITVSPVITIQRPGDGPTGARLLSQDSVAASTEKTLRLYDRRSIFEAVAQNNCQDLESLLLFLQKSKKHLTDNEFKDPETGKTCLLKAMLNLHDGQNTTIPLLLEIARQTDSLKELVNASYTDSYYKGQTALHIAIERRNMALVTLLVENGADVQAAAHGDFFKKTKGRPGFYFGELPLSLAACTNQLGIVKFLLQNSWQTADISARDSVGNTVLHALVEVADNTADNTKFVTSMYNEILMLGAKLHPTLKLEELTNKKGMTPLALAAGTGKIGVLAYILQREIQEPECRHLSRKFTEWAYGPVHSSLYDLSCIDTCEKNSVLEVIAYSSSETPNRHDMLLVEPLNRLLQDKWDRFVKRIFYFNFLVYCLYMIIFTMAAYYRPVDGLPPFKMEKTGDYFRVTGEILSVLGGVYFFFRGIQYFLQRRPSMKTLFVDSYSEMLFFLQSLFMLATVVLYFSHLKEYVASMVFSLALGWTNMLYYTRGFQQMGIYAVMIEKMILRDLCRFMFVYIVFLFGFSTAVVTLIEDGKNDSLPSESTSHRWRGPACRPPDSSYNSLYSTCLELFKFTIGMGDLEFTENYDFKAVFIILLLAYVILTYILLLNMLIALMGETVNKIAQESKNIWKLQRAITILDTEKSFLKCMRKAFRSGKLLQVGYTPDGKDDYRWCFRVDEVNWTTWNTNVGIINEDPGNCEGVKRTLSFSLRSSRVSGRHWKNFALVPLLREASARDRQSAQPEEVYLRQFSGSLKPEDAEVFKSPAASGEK", "details": "HEK-hVR1 transfected cells; cited from earlier work"}, "[3]": {"details": "in ethanol, reported value; cited from earlier work"}, "[4]": {"system": "cardiac inflammation produced by doxorubicin", "details": "5 mg/kg i.v. once daily for 4 weeks, rats; cited from earlier work"}, "[5]": {"assay": "Solubility of CBD in solvents (weight to weight)", "format": "physicochemical", "experimental": "First, the solubility of cannabidiol (CBD) was assessed. The powder looked granulated under the microscope. […] The conclusions from the solubility studies were that OA and IPA were very good solvents and it was surprising that IPA was so much better than ethanol.\nSolubility studies: CBD dissolved at the 10% level in AE and barely 9.5% in IPM. Further exploration was not conducted due to the small amount of drug API available for non-GMP work. CBD is soluble greater than 10% but probably not in excess of 20%, as the time to dissolve additional CBD was taking considerably longer."}, "[6]": {"assay": "Solubility of CBD in the Franz cell Receptor Fluid", "format": "physicochemical", "details": "aqueous with cosolvent or surfactant or cyclodextrin; PBS, 0.01 wt % NaN3, 4 wt % hydroxypropyl-β-cyclodextrin, 1 wt % Brij O20"}, "[7]": {"system": "ovalbumin-induced airway obstruction", "details": "1 mg/kg i.v., sensitized guinea-pigs; cited from earlier work"}},
  "data": [
    {"smiles": "C=C(C)[C@@H]1CCC(C)=C[C@H]1c1c(O)cc(CCCCC)cc1O", "note": "[CBD2]", "values": [
      {"measurement": "discoloration of solution", "setting": "[1]", "result": "None of the CBD2 solutions were colored at the end of day 1"}
    ]},
    {"smiles": "C=C(C)[C@@H]1CCC(C)=C[C@H]1c1c(O)cc(CCCCC)cc1O", "note": "[CBD1]", "values": [
      {"measurement": "discoloration of solution", "setting": "[1]", "result": "colored by the end of the day"}
    ]},
    {"smiles": "C=C(C)C1CCC(C)=CC1c1c(O)cc(CCCCC)cc1O", "note": "(stereo not drawn) [CBD, 2-[3-methyl-6-(1-methylethenyl)-2-cyclohexen-1-yl]-5-pentyl-1,3-benzenediol]", "values": [
      {"measurement": "inhibition of anandamide", "setting": "anandamide", "result": "inhibit anandamide"},
      {"measurement": "stimulation of VR1", "setting": "[2]", "result": "maximum effect similar in efficacy to that of capsaicin"},
      {"measurement": "reported solubility of CBD", "setting": "[3]", "result": 3.5, "unit": "%"},
      {"measurement": "effect on cardiac inflammation produced by doxorubicin", "setting": "[4]", "result": "attenuated cardiac inflammation"},
      {"measurement": "solubility (weight to weight) of CBD", "setting": "[5]; in ethanol", "result": "6-7%"},
      {"measurement": "solubility (weight to weight) of CBD", "setting": "[5]; in hexamethyldisiloxane (HDS)", "result": "3-4%"},
      {"measurement": "solubility (weight to weight) of CBD", "setting": "[5]; in isopropyl alcohol (IPA)", "result": "greater than 14%"},
      {"measurement": "solubility of CBD", "setting": "[5]; in isopropyl myristate (IPM)", "result": "~9.5", "unit": "%"},
      {"measurement": "solubility (weight to weight) of CBD", "setting": "[5]; in mineral oil", "result": "3-4%"},
      {"measurement": "solubility (weight to weight) of CBD", "setting": "[5]; in oleyl alcohol (OA), did not go higher in studies", "result": "greater than 8%"},
      {"measurement": "solubility (weight to weight) of CBD", "setting": "[5]; in propylene glycol (PG)", "result": "6-7%"},
      {"measurement": "solubility", "setting": "[6]", "result": "> 50", "unit": "µg/mL"},
      {"measurement": "effect on ovalbumin-induced airway obstruction", "setting": "[7]", "result": "attenuated ovalbumin-induced airway obstruction"}
    ]}
  ]
}
